From patent US6376497B1, “Antifungal azole derivatives having a fluorinated vinyl group and process for preparing same” (Korea Research Institute of Chemical Technology, priority 1999, dated 2002)
≈ marks a conversion by molar mass, not a printed value.

Key:
Test in all cases: In vitro antifungal activity, microbroth dilution MIC
Format in all cases: cell-based
[1] = system: Aspergillus niger A. 16404; details: A. niger A. 16404, RPMI-1640, 35° C., 4 to 48 hours
In short: (§1)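 Broth microdilution adapted from NCCLS M27, in RPMI-1640 with 0.165 M MOPS, pH 7.0. Yeast or mould inoculum at 2×10^3 CFU/ml was mixed 1:1 with DMSO-derived compound solutions (200 to 0.10 μg/ml before mixing) and incubated at 35 °C for 4 to 48 h. MIC was the concentration showing no growth.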

[2] = system: Candida parapsitosis A. 7330; details: C. parapsitosis A. 7330, RPMI-1640, 35° C., 4 to 48 hours
In short: as §1

[3] = system: Aspergillus furnigatus B. 19119; details: A furnigatus B. 19119, RPMI-1640, 35° C., 4 to 48 hours
In short: as §1

[4] = system: Candida tropicalis A. 13803; details: C. tropicalis A. 13803, RPMI-1640, 35° C., 4 to 48 hours
In short: as §1

[5] = system: Candida albicans A. 10231; details: C. albicans A. 10231, RPMI-1640, 35° C., 4 to 48 hours
In short: as §1

[6] = system: Cryptococcus neoformans A. 34144; details: Cry. neoformans A. 34144, RPMI-1640, 35° C., 4 to 48 hours
In short: as §1

[7] = system: Candida pseudotropicalis K. 11658; details: C. pseudotropicalis K. 11658, RPMI-1640, 35° C., 4 to 48 hours
In short: as §1

Candida albicans C1-2 = details: C. albicans C1-2, RPMI-1640, 35° C., 4 to 48 hours
In short: as §1

[8] = system: Trichophyton mentagrophytes B. 32663; details: T. mentagrophytes B. 32663, RPMI-1640, 35° C., 4 to 48 hours
In short: as §1

Candida krusei K. 11655 = details: C. krusei K. 11655, RPMI-1640, 35° C., 4 to 48 hours
In short: as §1

[9] = system: Cryptococcus neoformans B. 42419; details: Cry. neoformans B. 42419, RPMI-1640, 35° C., 4 to 48 hours
In short: as §1

[10] = system: Trichophyton mentagrophytes A. 9129; details: T. mentagrophytes A. 9129, RPMI-1640, 35° C., 4 to 48 hours
In short: as §1

[11] = system: Torulopsis glabrata B. 16205; details: T. glabrata B. 16205, RPMI-1640, 35° C., 4 to 48 hours
In short: as §1

[12] = system: Cryptococcus neoformans IFM. 40092; details: Cry. neoformans IFM. 40092, RPMI-1640, 35° C., 4 to 48 hours
In short: as §1

[13] = system: Candida albicans IFO. 1385; details: C. albicans IFO. 1385, RPMI-1640, 35° C., 4 to 48 hours
In short: as §1

SMILES | Minimal inhibitory concentration (MIC) [1] [µg/mL] | Minimal inhibitory concentration (MIC) [2] [µg/mL] | Minimal inhibitory concentration (MIC) [3] [µg/mL] | Minimal inhibitory concentration (MIC) [4] [µg/mL] | Minimal inhibitory concentration (MIC) [5] [µg/mL] | Minimal inhibitory concentration (MIC) [6] [µg/mL] | Minimal inhibitory concentration (MIC) [7] [µg/mL] | Minimal inhibitory concentration (MIC) (Candida albicans C1-2) [µg/mL] | Minimal inhibitory concentration (MIC) [8] [µg/mL] | Minimal inhibitory concentration (MIC) (Candida krusei K. 11655) [µg/mL] | Minimal inhibitory concentration (MIC) [9] [µg/mL] | Minimal inhibitory concentration (MIC) [10] [µg/mL] | Minimal inhibitory concentration (MIC) [11] [µg/mL] | Minimal inhibitory concentration (MIC) [12] [µg/mL] | Minimal inhibitory concentration (MIC) [13] [µg/mL]
FC(=Cc1ccc(F)cc1)OCC1COC(Cn2ccnc2)(c2ccc(Cl)cc2Cl)O1 (stereo not drawn) [Ex. 16] | 3.13 (≈ 6.7 µM) | 6.25 (≈ 13.4 µM) | 3.13 (≈ 6.7 µM) | 25.0 (≈ 53.5 µM) | 12.5 (≈ 26.7 µM) | 1.56 (≈ 3.34 µM) | 3.13 (≈ 6.7 µM) | 6.25 (≈ 13.4 µM) | 1.56 (≈ 3.34 µM) | 6.25 (≈ 13.4 µM) | 1.56 (≈ 3.34 µM) | 1.56 (≈ 3.34 µM) | 6.25 (≈ 13.4 µM) | 0.39 (≈ 0.835 µM) | 0.78 (≈ 1.67 µM)
Cc1cc(C=C(F)OCC2COC(Cn3ccnc3)(c3ccc(Cl)cc3Cl)O2)ccc1Cl (stereo not drawn) [Ex. 17] | 12.5 (≈ 25.1 µM) | 50.0 (≈ 100 µM) | 6.25 (≈ 12.6 µM) | 12.5 (≈ 25.1 µM) | 12.5 (≈ 25.1 µM) | 1.56 (≈ 3.13 µM) | 6.25 (≈ 12.6 µM) | 12.5 (≈ 25.1 µM) | 3.13 (≈ 6.29 µM) | 12.5 (≈ 25.1 µM) | 1.56 (≈ 3.13 µM) | 12.5 (≈ 25.1 µM) | 6.25 (≈ 12.6 µM) | 0.20 (≈ 0.402 µM) | 0.78 (≈ 1.57 µM)
Cc1cccc(C(=C(F)OCC2COC(Cn3ccnc3)(c3ccc(Cl)cc3Cl)O2)C(F)(F)F)c1 (stereo not drawn) [Ex. 20] | 100 (≈ 188 µM) | >100 | 50.0 (≈ 94.1 µM) | 25.0 (≈ 47.1 µM) | 6.25 (≈ 11.8 µM) | 1.56 (≈ 2.94 µM) | 100 (≈ 188 µM) | 6.25 (≈ 11.8 µM) | 6.25 (≈ 11.8 µM) | 100 (≈ 188 µM) | 1.56 (≈ 2.94 µM) | 12.5 (≈ 23.5 µM) | 12.5 (≈ 23.5 µM) | 0.39 (≈ 0.734 µM) | 0.78 (≈ 1.47 µM)
Cc1ccc(C(=C(F)OCC2COC(Cn3ccnc3)(c3ccc(Cl)cc3Cl)O2)C(F)(F)F)cc1 (stereo not drawn) [Ex. 21] | 100 (≈ 188 µM) | >100 | 50.0 (≈ 94.1 µM) | 25.0 (≈ 47.1 µM) | 6.25 (≈ 11.8 µM) | 0.78 (≈ 1.47 µM) | 100 (≈ 188 µM) | 6.25 (≈ 11.8 µM) | 6.25 (≈ 11.8 µM) | >100 | 1.56 (≈ 2.94 µM) | 12.5 (≈ 23.5 µM) | 12.5 (≈ 23.5 µM) | 0.39 (≈ 0.734 µM) | 0.78 (≈ 1.47 µM)
CCc1ccc(C(=C(F)OCC2COC(Cn3ccnc3)(c3ccc(Cl)cc3Cl)O2)C(F)(F)F)cc1 (stereo not drawn) [Ex. 22] | 100 (≈ 183 µM) | >100 | 50.0 (≈ 91.7 µM) | 25.0 (≈ 45.8 µM) | 6.25 (≈ 11.5 µM) | 1.56 (≈ 2.86 µM) | 100 (≈ 183 µM) | 12.5 (≈ 22.9 µM) | 12.5 (≈ 22.9 µM) | 100 (≈ 183 µM) | 1.56 (≈ 2.86 µM) | 25.0 (≈ 45.8 µM) | 25.0 (≈ 45.8 µM) | 0.78 (≈ 1.43 µM) | 0.78 (≈ 1.43 µM)
Cc1ccc(C(=C(F)OCC2COC(Cn3ccnc3)(c3ccc(Cl)cc3Cl)O2)C(F)(F)F)cc1C (stereo not drawn) [Ex. 23] | 100 (≈ 183 µM) | >100 | 50.0 (≈ 91.7 µM) | 25.0 (≈ 45.8 µM) | 6.25 (≈ 11.5 µM) | 1.56 (≈ 2.86 µM) | 100 (≈ 183 µM) | 6.25 (≈ 11.5 µM) | 6.25 (≈ 11.5 µM) | 100 (≈ 183 µM) | 1.56 (≈ 2.86 µM) | 12.5 (≈ 22.9 µM) | 12.5 (≈ 22.9 µM) | 0.39 (≈ 0.715 µM) | 0.78 (≈ 1.43 µM)
Cc1cc(C)cc(C(=C(F)OCC2COC(Cn3ccnc3)(c3ccc(Cl)cc3Cl)O2)C(F)(F)F)c1 (stereo not drawn) [Ex. 24] | 100 (≈ 183 µM) | >100 | 50.0 (≈ 91.7 µM) | 25.0 (≈ 45.8 µM) | 6.25 (≈ 11.5 µM) | 0.78 (≈ 1.43 µM) | 100 (≈ 183 µM) | 6.25 (≈ 11.5 µM) | 6.25 (≈ 11.5 µM) | >100 | 1.56 (≈ 2.86 µM) | 12.5 (≈ 22.9 µM) | 12.5 (≈ 22.9 µM) | 0.39 (≈ 0.715 µM) | 0.78 (≈ 1.43 µM)
FC(OCC1COC(Cn2ccnc2)(c2ccc(Cl)cc2Cl)O1)=C(c1ccc(C(F)(F)F)cc1)C(F)(F)F (stereo not drawn) [Ex. 25] | 100 (≈ 171 µM) | >100 | 100 (≈ 171 µM) | 50.0 (≈ 85.4 µM) | 6.25 (≈ 10.7 µM) | 1.56 (≈ 2.67 µM) | 100 (≈ 171 µM) | 12.5 (≈ 21.4 µM) | 12.5 (≈ 21.4 µM) | 100 (≈ 171 µM) | 1.56 (≈ 2.67 µM) | 25.0 (≈ 42.7 µM) | 25.0 (≈ 42.7 µM) | 0.78 (≈ 1.33 µM) | 1.56 (≈ 2.67 µM)
COc1ccc(C(=C(F)OCC2COC(Cn3ccnc3)(c3ccc(Cl)cc3Cl)O2)C(F)(F)F)cc1 (stereo not drawn) [Ex. 27] | 100 (≈ 183 µM) | >100 | 100 (≈ 183 µM) | >100 | 25.0 (≈ 45.7 µM) | 1.56 (≈ 2.85 µM) | >100 | 25.0 (≈ 45.7 µM) | 6.25 (≈ 11.4 µM) | >100 | 1.56 (≈ 2.85 µM) | 25.0 (≈ 45.7 µM) | 25.0 (≈ 45.7 µM) | 0.78 (≈ 1.43 µM) | 1.56 (≈ 2.85 µM)
